According to US11040987B2 (TenNor Therapeutics Limited, priority 2019, dated 2021):
Converted amounts (≈) assume the structure as drawn.

How the values were obtained:
Assay type in all cases: cell-based
A.b TNP 41704 = assay: MIC against A. baumannii clinical isolates, alone and in combination with antibiotics; conditions: for MIC: Acinetobacter baumannii, TNP41704, Compounds alone, read-out: MIC A.b TNP 41704
A.b TNP 41708 = assay: as above; conditions: for MIC: Acinetobacter baumannii, TNP41708, read-out: MIC A.b TNP 41708
Protocol: (§1) Minimum inhibitory concentration (MIC) is determined by a broth microdilution method according to the recommendation of the Clinical and Laboratory Standards Institute (CLSI) with minor modification. […] Strains of an ESKAPE panel (E. faecium ATCC 700221, S. aureus ATCC 29213, K. pneumoniae ATCC 43816, A. baumannii ATCC 19606, P. aeruginosa ATCC 27853 and Escherichia coli ATCC 25922) were obtained originally from the American Type Culture Collection (ATCC) and used for MIC determinations of compounds. The bacteria inoculum in the test is […].

[1] = system: Escherichia coli ATCC 25922; assay: MIC determination, broth microdilution, ESKAPE panel; conditions: ATCC25922, iron-depleted cation-adjusted Mueller-Hinton broth, 2,2-dipyridyl 160 μM, 37° C., 18-20 hours, read-out: MIC E. coli ATCC 25922
Protocol: as §1

P. aeruginosa ATCC 27853 = assay: as above; conditions: Pseudomonas aeruginosa, ATCC27853; iron-depleted cation-adjusted Mueller-Hinton broth, 2,2-dipyridyl 160 μM; 37° C., 18-20 hours; read-out: MIC P. aeruginosa ATCC 27853
Protocol: as §1

A. baumannii ATCC 19606 = assay: as above; conditions: Acinetobacter baumannii, ATCC19606; iron-depleted cation-adjusted Mueller-Hinton broth, 2,2-dipyridyl 160 μM; 37° C., 18-20 hours; read-out: MIC A. baumannii ATCC 19606
Protocol: as §1

K. pneumoniae ATCC 43816 = assay: as above; conditions: Klebsiella pneumoniae, ATCC43816; iron-depleted cation-adjusted Mueller-Hinton broth, 2,2-dipyridyl 160 μM; 37° C., 18-20 hours; read-out: MIC K. pneumoniae ATCC 43816
Protocol: as §1

S. aureus ATCC 29213 = assay: as above; conditions: Staphylococcus aureus, ATCC29213; iron-depleted cation-adjusted Mueller-Hinton broth, 2,2-dipyridyl 160 μM; 37° C., 18-20 hours; read-out: MIC S. aureus ATCC 29213
Protocol: as §1

E. faecium ATCC 700221 = assay: as above; conditions: Enterococcus faecium, ATCC700221; iron-depleted cation-adjusted Mueller-Hinton broth, 2,2-dipyridyl 160 μM; 37° C., 18-20 hours; read-out: MIC E. faecium ATCC 700221
Protocol: as §1

A.b TNP 41709 = assay: MIC against A. baumannii clinical isolates, alone and in combination with antibiotics; conditions: for MIC: Acinetobacter baumannii, TNP41709, Compounds alone, read-out: MIC A.b TNP 41709

Row | Compound | MIC (A.b TNP 41704) [µg/mL] | MIC A.b TNP 41704 (A.b TNP 41704; Compounds + Imipenem (1:1)) [µg/mL] | MIC A.b TNP 41704 (A.b TNP 41704; Compounds + meropenem (1:1)) [µg/mL] | MIC A.b TNP 41704 (A.b TNP 41704; Compounds + sulbactam (1:1)) [µg/mL] | MIC (A.b TNP 41708) [µg/mL] | MIC A.b TNP 41708 (A.b TNP 41708; Compounds + Imipenem (1:1)) [µg/mL] | MIC A.b TNP 41708 (A.b TNP 41708; Compounds + meropenem (1:1)) [µg/mL] | MIC A.b TNP 41708 (A.b TNP 41708; Compounds + sulbactam (1:1)) [µg/mL] | MIC [1] [µg/mL] | MIC (P. aeruginosa ATCC 27853) [µg/mL] | MIC (A. baumannii ATCC 19606) [µg/mL] | MIC (K. pneumoniae ATCC 43816) [µg/mL] | MIC (S. aureus ATCC 29213) [µg/mL] | MIC (E. faecium ATCC 700221) [µg/mL] | MIC (A.b TNP 41709) [µg/mL] | MIC A.b TNP 41709 (A.b TNP 41709; Compounds + Imipenem (1:1)) [µg/mL] | MIC A.b TNP 41709 (A.b TNP 41709; Compounds + meropenem (1:1)) [µg/mL] | MIC A.b TNP 41709 (A.b TNP 41709; Compounds + sulbactam (1:1)) [µg/mL]
1 | C[C@]1(/C=N/NC(=O)CCNC(=O)c2ccc(O)c(O)c2)[C@H](C(=O)O)N2C(=O)C[C@H]2S1(=O)=O [Example 67, (2S,3R,5R)-3-((E)-(2-(3-(3,4-dihydroxybenzamido)propanoyl)hydrazono)methyl)-3-methyl-7-oxo-4-thia-1-azabicyclo[3.2.0]heptane-2-carboxylic acid 4,4-dioxide] | > 128 | 4 | 4 | 1 | > 128 | 4 | 2 | 8 | > 128 | > 128 | 4 (≈ 8.54 µM) | 128 (≈ 273 µM) | 128 (≈ 273 µM) | > 128 | > 128 | 8 | 4 | 8
2 | C[C@@H](O)[C@H]1C(=O)N2C(C(=O)O)=C(SCCN=CN)C[C@H]12 [Imipenem, reference compound] | 16 | – | – | – | 32 | – | – | – | 0.25 (≈ 0.835 µM) | 1 (≈ 3.34 µM) | 0.25 (≈ 0.835 µM) | 0.5 (≈ 1.67 µM) | < 0.06 | > 128 | 32 | – | – | –
3 | C[C@]1(/C=N/OCCNC(=O)c2ccc(O)c(O)c2Cl)[C@H](C(=O)O)N2C(=O)C[C@H]2S1(=O)=O [Example 118, (2S,3R,5R)-3-((E)-((2-(2-chloro-3,4-dihydroxybenzamido)ethoxy)imino)methyl)-3-methyl-7-oxo-4-thia-1-azabicyclo[3.2.0]heptane-2-carboxylic acid 4,4-dioxide] | > 128 | – | 128 | 16 | > 128 | – | >128 | >128 | > 128 | > 128 | > 128 | > 128 | > 128 | > 128 | > 128 | – | >128 | >128
4 | C[C@]1(CNc2ccc(O)c(O)c2)[C@H](C(=O)O)N2C(=O)C[C@H]2S1(=O)=O [Example 117, (2S,3S,5R)-3-(((3,4-dihydroxyphenyl)amino)methyl)-3-methyl-7-oxo-4-thia-1-azabicyclo[3.2.0]heptane-2-carboxylic acid 4,4-dioxide] | 64 | – | 8 | 4 | 128 | – | 8 | 4 | > 128 | > 128 | 4 (≈ 11.2 µM) | > 128 | > 128 | > 128 | 64 | – | 8 | 4
5 | C[C@]1(COC(=O)c2ccc(O)c(O)c2Cl)[C@H](C(=O)O)N2C(=O)C[C@H]2S1(=O)=O [Example 114, (2S,3R,5R)-3-(((2-chloro-3,4-dihydroxybenzoyl)oxy)methyl)-3-methyl-7-oxo-4-thia-1-azabicyclo[3.2.0]heptane-2-carboxylic acid 4,4-dioxide] | > 128 | – | 64 | 8 | > 128 | – | 64 | 32 | 8 (≈ 19.1 µM) | > 128 | < 0.06 | 2 (≈ 4.76 µM) | 16 (≈ 38.1 µM) | > 128 | > 128 | – | 64 | 16
6 | C[C@]1(/C=N/NC(=O)c2ccc(O)cc2)[C@H](C(=O)O)N2C(=O)C[C@H]2S1(=O)=O [Example 29, (2S,3R,5R)-3-((E)-(2-(4-hydroxybenzoyl)hydrazono)methyl)-3-methyl-7-oxo-4-thia-1-azabicyclo[3.2.0]heptane-2-carboxylic acid 4,4-dioxide] | > 128 | – | 32 | 8 | > 128 | – | 32 | 32 | > 128 | > 128 | > 128 | > 128 | > 128 | > 128 | > 128 | – | 32 | 32
7 | C[C@]1(/C=N/NC(=O)C2CCN(C(=O)c3ccc(O)c(O)c3Cl)CC2)[C@H](C(=O)O)N2C(=O)C[C@H]2S1(=O)=O [Example 42, (2S,3R,5R)-3-((E)-(2-(1-(2-chloro-3,4-dihydroxybenzoyl)piperidine-4-carbonyl)hydrazono)methyl)-3-methyl-7-oxo-4-thia-1-azabicyclo[3.2.0]heptane-2-carboxylic acid 4,4-dioxide] | > 128 | – | 2 | 8 | > 128 | – | 2 | 8 | > 128 | > 128 | 1 (≈ 1.84 µM) | > 128 | 128 (≈ 236 µM) | > 128 | > 128 | – | 2 | 4
8 | C[C@]1(/C=N/NC(=O)[C@H](CO)NC(=O)c2ccc(O)c(O)c2Cl)[C@H](C(=O)O)N2C(=O)C[C@H]2S1(=O)=O [Example 43, (2S,3R,5R)-3-((E)-(2-(2-(2-chloro-3,4-dihydroxybenzamido)-3-hydroxypropanoyl)hydrazono)methyl)-3-methyl-7-oxo-4-thia-1-azabicyclo[3.2.0]heptane-2-carboxylic acid 4,4-dioxide] | > 128 | 8 | 4 | 4 | > 128 | 8 | 4 | 8 | > 128 | > 128 | 8 (≈ 15.4 µM) | > 128 | > 128 | – | > 128 | 4 | 4 | 4
